Results from the NIST ThermoML archive (doi:10.1016/j.jct.2017.04.007).

Conditions: Liquid; for speed of sound: Frequency=3 MHz, Pulse-echo method; for mass density: Vibrating tube method

CCOC(F)(C(F)(F)C(F)(F)C(F)(F)F)C(F)(C(F)(F)F)C(F)(F)F (configuration not stated) [2-trifluoromethyl-3-ethoxydodecafluorohexane]
Conditions	mass density [kg/m3]	speed of sound [m/s]
293.15 K, 100 kPa	1630.2	673.7
293.15 K, 10000 kPa	1654	–
293.15 K, 20000 kPa	1674.8	781.1
293.15 K, 30000 kPa	1693.3	–
293.15 K, 40000 kPa	1709.8	865.8
293.15 K, 50000 kPa	1724.9	–
293.15 K, 60000 kPa	1738.8	938.1
293.15 K, 70000 kPa	1751.7	–
293.15 K, 80000 kPa	1763.9	1001.8
293.15 K, 90000 kPa	1775.4	–
293.15 K, 100000 kPa	1786.2	1058
293.15 K, 110000 kPa	1796.5	–
293.15 K, 120000 kPa	1806.3	–
293.15 K, 130000 kPa	1815.8	–
293.15 K, 140000 kPa	1824.9	–
303.15 K, 100 kPa	1609.7	643.7
303.15 K, 10000 kPa	1635.5	–
303.15 K, 20000 kPa	1657.8	755.3
303.15 K, 30000 kPa	1677.3	–
303.15 K, 40000 kPa	1694.6	842.8
303.15 K, 50000 kPa	1710.4	–
303.15 K, 60000 kPa	1724.9	916.9
303.15 K, 70000 kPa	1738.4	–
303.15 K, 80000 kPa	1750.9	981.3
303.15 K, 90000 kPa	1762.8	–
303.15 K, 100000 kPa	1773.9	1038.5
303.15 K, 110000 kPa	1784.5	–
303.15 K, 120000 kPa	1794.5	–
303.15 K, 130000 kPa	1804.2	–
303.15 K, 140000 kPa	1813.4	–
313.15 K, 100 kPa	1588.6	616.7
313.15 K, 10000 kPa	1616.6	–
313.15 K, 20000 kPa	1640.2	732.2
313.15 K, 30000 kPa	1660.7	–
313.15 K, 40000 kPa	1678.9	822
313.15 K, 50000 kPa	1695.4	–
313.15 K, 60000 kPa	1710.5	897.4
313.15 K, 70000 kPa	1724.6	–
313.15 K, 80000 kPa	1737.1	963
313.15 K, 90000 kPa	1749.7	–
313.15 K, 100000 kPa	1761.2	1021.7
313.15 K, 110000 kPa	1772.2	–
313.15 K, 120000 kPa	1782.5	–
313.15 K, 130000 kPa	1792.5	–
313.15 K, 140000 kPa	1802	–
323.15 K, 100 kPa	1567.3	588.4
323.15 K, 10000 kPa	1597.6	–
323.15 K, 20000 kPa	1622.7	709.6
323.15 K, 30000 kPa	1644.3	–
323.15 K, 40000 kPa	1663.4	802.1
323.15 K, 50000 kPa	1680.6	–
323.15 K, 60000 kPa	1696.4	878.6
323.15 K, 70000 kPa	1710.9	–
323.15 K, 80000 kPa	1724.2	945.6
323.15 K, 90000 kPa	1736.8	–
323.15 K, 100000 kPa	1748.7	1004.9
323.15 K, 110000 kPa	1760	–
323.15 K, 120000 kPa	1770.6	–
323.15 K, 130000 kPa	1780.7	–
323.15 K, 140000 kPa	1790.5	–
333.15 K, 100 kPa	1545.6	561.4
333.15 K, 10000 kPa	1578.4	–
333.15 K, 20000 kPa	1605.3	688.4
333.15 K, 30000 kPa	1628.1	–
333.15 K, 40000 kPa	1648.2	783.3
333.15 K, 50000 kPa	1666.2	–
333.15 K, 60000 kPa	1682.6	861.5
333.15 K, 70000 kPa	1697.7	–
333.15 K, 80000 kPa	1711.6	929.1
333.15 K, 90000 kPa	1724.6	–
333.15 K, 100000 kPa	1736.9	989.3
333.15 K, 110000 kPa	1748.2	–
333.15 K, 120000 kPa	1759.3	–
333.15 K, 130000 kPa	1769.7	–
333.15 K, 140000 kPa	1779.5	–
343.15 K, 100 kPa	1523.6	534.8
343.15 K, 10000 kPa	1559.1	–
343.15 K, 20000 kPa	1587.8	667.7
343.15 K, 30000 kPa	1611.9	–
343.15 K, 40000 kPa	1633	765
343.15 K, 50000 kPa	1651.7	–
343.15 K, 60000 kPa	1668.7	844.9
343.15 K, 70000 kPa	1684.2	–
343.15 K, 80000 kPa	1698.6	913.5
343.15 K, 90000 kPa	1712	–
343.15 K, 100000 kPa	1724.4	974
343.15 K, 110000 kPa	1736.5	–
343.15 K, 120000 kPa	1747.8	–
343.15 K, 130000 kPa	1758.4	–
343.15 K, 140000 kPa	1768.6	–
353.15 K, 100 kPa	1501.6	509
353.15 K, 10000 kPa	1540	–
353.15 K, 20000 kPa	1570.5	647.6
353.15 K, 30000 kPa	1596	–
353.15 K, 40000 kPa	1618	747.5
353.15 K, 50000 kPa	1637.6	–
353.15 K, 60000 kPa	1655.2	828.9
353.15 K, 70000 kPa	1671.3	–
353.15 K, 80000 kPa	1686.2	898.5
353.15 K, 90000 kPa	1700	–
353.15 K, 100000 kPa	1712.9	960.3
353.15 K, 110000 kPa	1724.9	–
353.15 K, 120000 kPa	1736.6	–
353.15 K, 130000 kPa	1747.4	–
353.15 K, 140000 kPa	1757.8	–
363.15 K, 100 kPa	1478.1	–
363.15 K, 10000 kPa	1520.4	–
363.15 K, 20000 kPa	1553	–
363.15 K, 30000 kPa	1579.9	–
363.15 K, 40000 kPa	1603	–
363.15 K, 50000 kPa	1623.4	–
363.15 K, 60000 kPa	1641.7	–
363.15 K, 70000 kPa	1658.3	–
363.15 K, 80000 kPa	1673.6	–
363.15 K, 90000 kPa	1687.9	–
363.15 K, 100000 kPa	1701.2	–
363.15 K, 110000 kPa	1713.7	–
363.15 K, 120000 kPa	1725.3	–
363.15 K, 130000 kPa	1736.6	–
363.15 K, 140000 kPa	1747.3	–
373.15 K, 100 kPa	1454.4	–
373.15 K, 10000 kPa	1500.9	–
373.15 K, 20000 kPa	1535.8	–
373.15 K, 30000 kPa	1564.2	–
373.15 K, 40000 kPa	1588.4	–
373.15 K, 50000 kPa	1609.6	–
373.15 K, 60000 kPa	1628.5	–
373.15 K, 70000 kPa	1645.8	–
373.15 K, 80000 kPa	1661.7	–
373.15 K, 90000 kPa	1676.4	–
373.15 K, 100000 kPa	1689.9	–
373.15 K, 110000 kPa	1702.8	–
373.15 K, 120000 kPa	1714.7	–
373.15 K, 130000 kPa	1726.2	–
373.15 K, 140000 kPa	1737.1	–
383.15 K, 100 kPa	1430.4	–
383.15 K, 10000 kPa	1481.2	–
383.15 K, 20000 kPa	1518.4	–
383.15 K, 30000 kPa	1548.4	–
383.15 K, 40000 kPa	1573.8	–
383.15 K, 50000 kPa	1595.9	–
383.15 K, 60000 kPa	1615.5	–
383.15 K, 70000 kPa	1633.3	–
383.15 K, 80000 kPa	1649.6	–
383.15 K, 90000 kPa	1664.6	–
383.15 K, 100000 kPa	1678.5	–
383.15 K, 110000 kPa	1691.6	–
383.15 K, 120000 kPa	1704	–
383.15 K, 130000 kPa	1715.7	–
383.15 K, 140000 kPa	1726.8	–
393.15 K, 100 kPa	1405.6	–
393.15 K, 10000 kPa	1461.3	–
393.15 K, 20000 kPa	1500.9	–
393.15 K, 30000 kPa	1532.5	–
393.15 K, 40000 kPa	1559	–
393.15 K, 50000 kPa	1581.9	–
393.15 K, 60000 kPa	1602.2	–
393.15 K, 70000 kPa	1620.6	–
393.15 K, 80000 kPa	1637.1	–
393.15 K, 90000 kPa	1652.8	–
393.15 K, 100000 kPa	1667.1	–
393.15 K, 110000 kPa	1680.5	–
393.15 K, 120000 kPa	1693.2	–
393.15 K, 130000 kPa	1705.1	–
393.15 K, 140000 kPa	1716.3	–
